# Results reported in the supplement of paper PMC6045584.
# ± gives the standard deviation of the averaged measurements.
# Assays:
# DECITABINE = compound: Nc1ncn([C@H]2C[C@H](O)[C@@H](CO)O2)c(=O)n1 [DECITABINE]; assay: surviving fraction relative to DMSO-only wells; higher = less growth inhibition; conditions: exposure time: 5 days
# How it was run: (§1)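 Continuous five-day exposure to inhibitors at 0.5, 1, 5, 10, 50, 100, 500 and 1000 nM started 24 hours after log-phase tumour cell lines were seeded at 250–500 cells per well in 384-well plates. Luminescence was read after 10 minutes at room temperature. Viability is given as surviving fraction, meaning CellTiter-Glo luminescence normalised to the median of DMSO-only wells.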
# VISMODEGIB = compound: CS(=O)(=O)c1ccc(C(=O)Nc2ccc(Cl)c(-c3ccccn3)c2)c(Cl)c1 [VISMODEGIB]; assay: as above; conditions: exposure time: 5 days
# How it was run: as §1
Test System,surviving fraction (DECITABINE; 0.5 nM),surviving fraction (DECITABINE; 1 nM),surviving fraction (DECITABINE; 5 nM),surviving fraction (DECITABINE; 10 nM),surviving fraction (DECITABINE; 50 nM),surviving fraction (DECITABINE; 100 nM),surviving fraction (DECITABINE; 500 nM),surviving fraction (DECITABINE; 1000 nM),surviving fraction (VISMODEGIB; 0.5 nM),surviving fraction (VISMODEGIB; 1 nM),surviving fraction (VISMODEGIB; 5 nM),surviving fraction (VISMODEGIB; 10 nM),surviving fraction (VISMODEGIB; 50 nM),surviving fraction (VISMODEGIB; 100 nM),surviving fraction (VISMODEGIB; 500 nM),surviving fraction (VISMODEGIB; 1000 nM)
SYO1 SYNOVIAL,0.991 ± 0.024,0.998 ± 0.021,0.933 ± 0.021,0.917 ± 0.022,0.663 ± 0.015,0.629 ± 0.013,0.439 ± 0.02,0.383 ± 0.0062,0.953 ± 0.052,0.978 ± 0.049,0.992 ± 0.014,0.994 ± 0.054,0.879 ± 0.042,0.882 ± 0.041,0.884 ± 0.045,0.898 ± 0.048
T47D BREAST,1.03 ± 0.049,1.06 ± 0.035,1.05 ± 0.029,1.04 ± 0.028,1.12 ± 0.049,1.08 ± 0.024,1.04 ± 0.049,1.06 ± 0.057,0.993 ± 0.034,0.965 ± 0.049,1.01 ± 0.025,0.988 ± 0.012,0.99 ± 0.035,1.07 ± 0.015,0.983 ± 0.013,0.989 ± 0.025
U2OS BONE,1.02 ± 0.043,1.01 ± 0.052,1.04 ± 0.054,1.01 ± 0.021,0.992 ± 0.029,0.902 ± 0.045,0.679 ± 0.055,0.699 ± 0.013,1.04 ± 0.019,1.07 ± 0.042,1.09 ± 0.012,1.05 ± 0.013,1.02 ± 0.065,1.04 ± 0.046,1.05 ± 0.028,1.07 ± 0.024
VCAP PROSTATE,1.11 ± 0.099,1.17 ± 0.031,1.25 ± 0.14,1.18 ± 0.095,1.09 ± 0.035,1.09 ± 0.11,1.01 ± 0.094,0.875 ± 0.062,1.04 ± 0.046,1 ± 0.11,1.1 ± 0.18,1.13 ± 0.22,0.905 ± 0.033,1.08 ± 0.12,0.914 ± 0.066,0.981 ± 0.1
VP229 BREAST,1.09 ± 0.062,1.13 ± 0.093,0.996 ± 0.13,0.952 ± 0.11,0.966 ± 0.067,0.959 ± 0.028,0.871 ± 0.056,0.798 ± 0.097,1.27 ± 0.025,1.1 ± 0.065,1.15 ± 0.13,1.14 ± 0.082,0.972 ± 0.14,1.01 ± 0.017,1.15 ± 0.16,1.11 ± 0.014
YAMATO SYNOVIAL,1.26 ± 0.05,1.11 ± 0.081,1.17 ± 0.086,0.995 ± 0.098,1.02 ± 0.081,1.04 ± 0.034,0.907 ± 0.034,0.811 ± 0.035,1.24 ± 0.083,1.26 ± 0.099,1.34 ± 0.087,1.37 ± 0.067,0.917 ± 0.031,0.967 ± 0.15,0.805 ± 0.066,0.82 ± 0.12
ZR751 BREAST,1.21 ± 0.096,1.2 ± 0.073,1.22 ± 0.11,1.05 ± 0.16,0.988 ± 0.12,1.13 ± 0.12,0.865 ± 0.012,0.866 ± 0.059,0.853 ± 0.06,0.937 ± 0.16,0.799 ± 0.15,0.971 ± 0.12,0.756 ± 0.036,0.857 ± 0.037,0.835 ± 0.15,0.945 ± 0.06
